The test has as its target PDE V isoenzyme (Homo sapiens, UniProt O76074). In words: PDE V isoenzyme inhibition (PDE V IC50). In kind it is biochemical. The conditions noted are these: bound printed as 'about <'. From the text:
The compounds of the invention can be useful for inhibiting PDE V isoenzymes. Isoenzyme activity (potency) and isoenzyme selectivity for a compound can be evaluated in a number of ways. […] Similarly, an IC50 value may be obtained for other PDE isoenzymes, such as the PDE VI isoenzyme. Isoenzyme selectivity in this respect may be defined as the activity (potency) of a PDE inhibitor compound for a particular PDE isoenzyme as opposed to another PDE isoenzyme, for example, the activity of a compound to inhibit a PDE V isoenzyme compared to the activity of the same compound to inhibit a PDE VI isoenzyme.
`CCN1C(=O)c2c(nc(Br)n2Cc2ccc(O)c(Cl)c2)N2C[C@@H](Cc3ccccc3)N=C12` [Compound 12]: the IC50 was under 4.1 nM. The same measure for `CCOc1nc2c(n1Cc1ccc(O)c(Cl)c1)C(=O)N(CC)C1=N[C@H](C(C)C)CN12` [Compound 19]: under 4.1 nM; for `CCN1C(=O)c2c(nc(OC)n2Cc2ccc(OC)c(Cl)c2)N2C[C@@H](Cc3ccccc3)N=C12` [Compound 2]: under 1.6 nM; for `CCN1C(=O)c2c(nc(OC)n2Cc2ccc(O)c(Br)c2)N2C[C@@H](Cc3ccccc3)N=C12` [Compound 18]: under 1.6 nM.

Regarding `CCN1C(=O)c2c(nc(OC)n2Cc2ccc(O)cc2)N2C[C@@H](Cc3ccccc3)N=C12` [Compound 8], the IC50 was under 2.5 nM. For the compound `CCN1C(=O)c2c(nc(C(=O)NC)n2Cc2ccc(O)c(Cl)c2)N2C[C@@H](Cc3ccccc3)N=C12` [Compound 9], the IC50 was under 4.1 nM. With `CCOc1nc2c(n1Cc1ccc(O)c(Cl)c1)C(=O)N(CC)C1=N[C@H](Cc3ccccc3)CN12` [Compound 16], the half-maximal inhibitory concentration (IC50) was under 1.6 nM. The same measure for `CCN1C(=O)c2c(nc(Br)n2Cc2ccc(OC)c(Br)c2)N2C[C@@H](Cc3ccccc3)N=C12` [Compound 1.3.2]: under 4.1 nM. Turning to `CCN1C(=O)c2c(nc(C(=O)OC)n2Cc2ccc(O)c(Cl)c2)N2C[C@@H](Cc3ccccc3)N=C12` [Compound 11], the 50% inhibitory concentration (IC50) was under 1.6 nM. Regarding `CCOc1nc2c(n1Cc1ccc(O)c(Br)c1)C(=O)N(CC)C1=N[C@H](Cc3ccccc3F)CN12` [Compound 22], the concentration for half-maximal inhibition (IC50) is under 4.1 nM. In turn, `CCN1C(=O)c2c(nc(Cl)n2Cc2ccc(O)cc2)N2C[C@@H](Cc3ccccc3)N=C12` [Compound 15] yielded an IC50 of under 4.1 nM.

For `CCN1C(=O)c2c(nc(Br)n2Cc2ccc(O)c(Cl)c2)N2C[C@@H](Cc3ccc(F)cc3)N=C12` [Compound 21], the IC50 is under 2.2 nM.

`CCN1C(=O)c2c(nc(Br)n2Cc2ccc(O)c(Br)c2)N2C[C@@H](Cc3cccc(F)c3)N=C12` [Compound 23] had an IC50 of under 4.1 nM. The same measure for `CCN1C(=O)c2c(nc(Br)n2Cc2ccc(O)c(Br)c2)N2C1=N[C@@H]1CCC[C@@H]12` [Compound 4]: under 1.6 nM. The same measure for `CCN1C(=O)c2c(nc(OC)n2Cc2ccc(OC)c(Br)c2)N2C[C@@H](Cc3ccccc3)N=C12` [Compound 3]: under 4.1 nM; for `CCN1C(=O)c2c(nc(OC)n2Cc2ccc(O)c(Cl)c2)N2C1=N[C@@H]1CCC[C@@H]12` [Compound 6]: under 4.1 nM.

For the compound `CCN1C(=O)c2c(nc(Br)n2Cc2ccc(O)c(Br)c2)N2C[C@@H](Cc3ccccc3)N=C12` [Compound 13], the half-inhibitory concentration (IC50) is under 4.1 nM. The same measure for `CCN1C(=O)c2c(nc(OC)n2Cc2ccc(O)c(Cl)c2)N2C[C@@H](Cc3ccccc3)N=C12` [Compound 17]: under 1.6 nM; for `CCN1C(=O)c2c(nc(OC)n2Cc2ccc(O)c(Br)c2)N2C1=N[C@@H]1CCC[C@@H]12` [Compound 5]: under 1.6 nM.

`CCN1C(=O)c2c(nc(C(N)=O)n2Cc2ccc(O)c(Cl)c2)N2C[C@@H](Cc3ccccc3)N=C12` [Compound 10] showed an IC50 of under 4.1 nM.

With `CCOc1nc2c(n1Cc1ccc(OC)c(Cl)c1)C(=O)N(CC)C1=N[C@H](Cc3ccccc3)CN12` [Compound 1], the concentration for half-maximal inhibition (IC50) was under 2.2 nM.

The term IC50 denotes the concentration that inhibits the measured activity by half.

For the origin of these results see patent US6943171B2, “Polycyclic guanine derivative phosphodiesterase V inhibitors” (Schering Corporation, priority 2001, dated 2005).
